Experimental data as given in patent publication US6133275A, “3-phenylpyrrolidine alpha-1 adrenergic compounds” (Abbott Laboratories, priority 1998, dated 2000).
Where a name gives a salt, the structure may show the parent alone.

Columns and labels:
α1a (Bovine) = biological target: T1, α1a (Bovine) (Bos taurus, UniProt P18130); assay: Radioligand binding, displacement of [3H]-prazosin from cloned α1a (bovine) expressed in LTK cells; conditions: [3H]-prazosin 0.2 nM; cloned bovine α1a in LTK cell membranes; 25° C., 50 minutes
T1 sequence (P18130 1-466): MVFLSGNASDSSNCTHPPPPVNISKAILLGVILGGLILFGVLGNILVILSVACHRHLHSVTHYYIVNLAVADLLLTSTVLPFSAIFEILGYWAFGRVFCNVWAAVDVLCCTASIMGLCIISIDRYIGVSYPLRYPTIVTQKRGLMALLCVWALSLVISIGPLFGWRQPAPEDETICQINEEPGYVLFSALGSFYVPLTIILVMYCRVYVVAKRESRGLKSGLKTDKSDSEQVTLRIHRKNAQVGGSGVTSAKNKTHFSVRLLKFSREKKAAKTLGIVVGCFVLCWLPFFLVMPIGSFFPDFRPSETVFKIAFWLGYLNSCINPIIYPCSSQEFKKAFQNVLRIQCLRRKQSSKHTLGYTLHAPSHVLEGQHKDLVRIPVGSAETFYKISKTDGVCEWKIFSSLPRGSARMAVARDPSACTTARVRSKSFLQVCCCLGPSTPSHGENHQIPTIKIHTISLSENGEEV

α1a (Rat) = biological target: T2, α1a (Rat) (Rattus norvegicus, UniProt P43140); assay: Radioligand binding, displacement of [3H]-prazosin from cloned α1a (rat) expressed in LTK cells; conditions: [3H]-prazosin 0.2 nM; cloned rat α1a in LTK cell membranes; 25° C., 50 minutes
T2 sequence (P43140 1-466): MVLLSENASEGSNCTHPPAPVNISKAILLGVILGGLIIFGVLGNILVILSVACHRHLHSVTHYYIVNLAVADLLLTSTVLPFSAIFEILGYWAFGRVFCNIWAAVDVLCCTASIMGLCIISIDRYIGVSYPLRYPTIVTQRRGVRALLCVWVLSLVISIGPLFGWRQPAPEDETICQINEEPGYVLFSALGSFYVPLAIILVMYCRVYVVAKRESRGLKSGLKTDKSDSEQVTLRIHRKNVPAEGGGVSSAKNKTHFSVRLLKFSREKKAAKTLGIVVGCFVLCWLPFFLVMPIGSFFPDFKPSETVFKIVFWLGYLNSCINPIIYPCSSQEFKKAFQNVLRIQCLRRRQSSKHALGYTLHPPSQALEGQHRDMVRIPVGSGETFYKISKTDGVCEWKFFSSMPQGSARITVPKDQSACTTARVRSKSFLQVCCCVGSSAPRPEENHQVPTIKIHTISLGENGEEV

α1d (rat) = biological target: T3, α1d (rat) (Rattus norvegicus, UniProt P23944); assay: Radioligand binding, displacement of [3H]-prazosin from cloned α1d (rat) expressed in LTK cells; conditions: [3H]-prazosin 0.2 nM; cloned rat α1d in LTK cell membranes; 25° C., 50 minutes
T3 sequence (P23944 1-561): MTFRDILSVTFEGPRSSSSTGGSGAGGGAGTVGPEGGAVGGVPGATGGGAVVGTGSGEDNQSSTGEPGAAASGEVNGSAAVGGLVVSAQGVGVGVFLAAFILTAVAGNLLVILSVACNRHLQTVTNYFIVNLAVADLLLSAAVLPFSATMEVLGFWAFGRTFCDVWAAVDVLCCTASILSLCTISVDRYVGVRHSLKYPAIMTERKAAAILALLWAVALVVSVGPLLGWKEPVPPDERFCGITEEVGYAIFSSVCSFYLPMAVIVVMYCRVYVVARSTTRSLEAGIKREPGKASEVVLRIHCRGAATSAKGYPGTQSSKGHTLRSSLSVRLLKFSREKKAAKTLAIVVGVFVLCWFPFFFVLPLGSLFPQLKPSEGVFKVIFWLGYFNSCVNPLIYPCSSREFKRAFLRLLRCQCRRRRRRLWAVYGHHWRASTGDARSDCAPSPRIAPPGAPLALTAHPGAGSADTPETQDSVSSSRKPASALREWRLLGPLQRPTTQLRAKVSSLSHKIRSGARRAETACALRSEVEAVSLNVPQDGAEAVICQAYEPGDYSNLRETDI

α1b (Hamster) = biological target: T4, α1b (Hamster) (Mesocricetus auratus, UniProt P18841); assay: Radioligand binding, displacement of [3H]-prazosin from cloned α1b (hamster) expressed in LTK cells; conditions: [3H]-prazosin 0.2 nM; cloned hamster α1b in LTK cell membranes; 25° C., 50 minutes
T4 sequence (P18841 1-515): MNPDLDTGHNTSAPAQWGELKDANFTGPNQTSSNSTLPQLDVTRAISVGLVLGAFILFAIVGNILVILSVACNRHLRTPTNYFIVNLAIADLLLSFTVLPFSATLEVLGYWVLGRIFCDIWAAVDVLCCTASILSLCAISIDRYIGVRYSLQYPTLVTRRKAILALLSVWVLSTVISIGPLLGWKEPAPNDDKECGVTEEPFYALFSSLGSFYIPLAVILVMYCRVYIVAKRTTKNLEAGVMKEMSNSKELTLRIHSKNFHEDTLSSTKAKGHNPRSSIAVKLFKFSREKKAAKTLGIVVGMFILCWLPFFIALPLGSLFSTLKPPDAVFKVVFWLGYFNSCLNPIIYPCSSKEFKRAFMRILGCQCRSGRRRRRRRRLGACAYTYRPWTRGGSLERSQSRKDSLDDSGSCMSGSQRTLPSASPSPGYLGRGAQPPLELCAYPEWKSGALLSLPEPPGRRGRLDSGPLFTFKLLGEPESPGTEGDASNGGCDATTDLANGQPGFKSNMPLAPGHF

SMILES | Ki (α1a (Bovine)) [nM] | Ki (α1a (Rat)) [nM] | Ki (α1d (rat)) [nM] | Ki (α1b (Hamster)) [nM]
COc1ccccc1[C@H]1CCN(CCCCn2c(=O)[nH]c3c(sc4ccc(Cl)nc43)c2=O)C1 [Example 10, (R)-8-chloro-3-[4-[3-(2-methoxyphenyl)-1-pyrrolidinyl]butyl]pyrido[2',3':4,5]thieno[3,2-d]pyrimidine-2,4(1H,3H)-dione, Dihydrochloride] | 0.05 | 0.22 | 0.06 | 1.18
COc1ccccc1[C@H]1CCN(CCCCn2c(=O)[nH]c3c(sc4nccnc43)c2=O)C1 [Example 13, (R)-3-[4-[3-(2-Methoxyphenyl)-1-pyrrolidinyl]butyl]pyrazino[2',3':4,5]thieno[3,2-d]pyrimidine-2,4(1H,3H)-dione, Dihydrochloride] | 0.07 | 0.21 | 0.36 | 2.99
COc1ccccc1[C@H]1CCN(CCCCCn2c(=O)[nH]c3c(sc4ncccc43)c2=O)C1 [Example 9, (R)-3-[5-[3-(2-methoxyphenyl)-1-pyrrolidinyl]pentyl]pyrido[3',2':4,5]thieno[3,2-d]pyrimidine-2,4(1H,3H)-dione, Dihydrochloride] | 0.32 | 3.3 | 2.35 | 7.38
COc1ccccc1[C@H]1CCN(CCCCN2C(=O)c3ccccc3C2=O)C1 [Example 12, (R)-2-[4-[3-(2-methoxyphenyl)-1-pyrrolidinyl]butyl]-1H-isoindole-1,3(2H)-dione, Monohydrochloride] | 0.06 | 0.32 | 0.28 | 0.96
COc1ccc2sc3c(=O)n(CCCCN4CC[C@H](c5ccccc5OC)C4)c(=O)[nH]c3c2n1 [Example 11, (R)-8-methoxy-3-[4-[3-(2-methoxyphenyl)-1-pyrrolidinyl]butyl]pyrido-[2',3':4,5]thieno[3,2-d]pyrimidine-2,4(1H,3H)-dione, Dihydrochloride] | 0.11 | 0.67 | 0.12 | 1.79
COc1cccc([C@H]2CCN(CCn3c(=O)[nH]c4c(sc5ccccc54)c3=O)C2)c1 [Example 3, (R)-3-[2-[3-(3-Methoxyphenyl)-1-pyrrolidinyl]ethyl]-[1]benzothieno[3,2-d]pyrimidine-2,4(1H,3H)-dione Monohydrochloride] | 5.95 | 34 | 20 | 59.7
COc1ccccc1[C@H]1CCN(CCCCCn2c(=O)[nH]c3c(sc4cccnc43)c2=O)C1 [Example 7, (R)-3-[5-[3-(2-Methoxyphenyl)-1-pyrrolidinyl]pentyl]pyrido[2',3':4,5]thieno[3,2-d]pyrimidine-2,4(1H,3H)-dione, Dihydrochloride] | 0.18 | 2.11 | 2.13 | 4.86
COc1ccccc1[C@H]1CCN(CCn2c(=O)[nH]c3c(sc4ccccc43)c2=O)C1 [Example 1, (R)-3-[2-[3-(2-Methoxyphenyl)-1-pyrrolidinyl]ethyl]-[1]benzothieno[3,2-d]pyrimidine-2,4(1H,3H)-dione, Monohydrochloride] | 0.13 | 1.8 | 0.82 | 0.94

The next lines start with the values.

Ki (α1a (Bovine)) [nM] | Ki (α1a (Rat)) [nM] | Ki (α1d (rat)) [nM] | Ki (α1b (Hamster)) [nM] | SMILES
8 | 27.3 | 92.2 | 70.7 | COc1cccc([C@H]2CCN(CCCn3c(=O)[nH]c4c(sc5cccnc54)c3=O)C2)c1 [Example 21, (R)-3-[3-[3-(3-methoxyphenyl)-1-pyrrolidinyl]propyl]pyrido[2',3':4,5]thieno[3,2-d]pyrimidine-2,4(1H,3 H)-dione, Dihydrochloride]
0.03 | 0.13 | 0.22 | 1.1 | COc1ccccc1[C@H]1CCN(CCCCN2C(=O)c3ccccc3S2(=O)=O)C1 [Example 17, (R)-2-[4-[3-(2-methoxyphenyl)-1-pyrrolidinyl]butyl]-1,2-benzoisothiazol-3(2H)-one, 1,1-dioxide Monohydrochloride]
1.52 | 5.11 | 11.5 | 18.4 | COc1cccc([C@H]2CCN(CCCCn3c(=O)[nH]c4c(sc5cccnc54)c3=O)C2)c1 [Example 22, (R)-3-[4-[3-(3-methoxyphenyl)-1-pyrrolidinyl]butyl]pyrido[2',3':4,5]thieno[3,2-d]pyrimidine-2,4(1H,3H)-dione, Dihydrochloride]
27 | 134 | 86.4 | 331 | COc1cccc([C@H]2CCN(CCn3c(=O)[nH]c4c(sc5ncccc54)c3=O)C2)c1 [Example 23, (R)-3-[2-[3-(3-methoxyphenyl)-1-pyrrolidinyl]ethyl]pyrido[3',2':4,5]thieno[3,2-d]pyrimidine-2,4(1H,3H)-dione, Dihydrochloride]
0.09 | 1.61 | 0.64 | 11.8 | COc1ccccc1[C@H]1CCN(CCCCn2c(=O)[nH]c3c(sc4ncc(-c5ccccc5)nc43)c2=O)C1 [Example 16, (R)-8-phenyl-3-[4-[3-(2-methoxyphenyl)-1-pyrrolidinyl]butyl]pyrazino[2',3':4,5]thieno[3,2-d]pyrimidine-2,4(1H,3H)-dione, Dihydrochloride]
0.69 | 1.98 | 2.02 | 4.02 | COc1ccccc1[C@@H]1CCN(CCCCn2c(=O)[nH]c3c(sc4cccnc43)c2=O)C1 [Example 29, (S)-3-[4-[3-(2-methoxyphenyl)-1-pyrrolidinyl]butyl]pyrido[2',3':4,5]thieno[3,2-d]pyrimidine-2,4(1H,3H)-dione, Dihydrochloride]
2.46 | 14.4 | 8.48 | 15.7 | COc1ccccc1[C@@H]1CCN(CCn2c(=O)[nH]c3c(sc4cccnc43)c2=O)C1 [Example 27, (S)-3-[2-[3-(2-methoxyphenyl)-1-pyrrolidinyl]ethyl]pyrido[2',3':4,5]thieno[3,2-d]pyrimidine-2,4(1H,3 H)-dione, Dihydrochloride]
0.06 | 0.26 | 0.15 | 2.37 | COc1cnc2sc3c(=O)n(CCCCN4CC[C@H](c5ccccc5OC)C4)c(=O)[nH]c3c2n1 [Example 15, (R)-8-Methoxy-3-[4-[3-(2-methoxyphenyl)-1-pyrrolidinyl]butyl]pyrazino-[2',3':4,5]thieno[3,2-d]pyrimidine-2,4(1H,3H)-dione, Dihydrochloride]
0.09 | 0.22 | 0.47 | 5.9 | COc1ccccc1[C@H]1CCN(CCCCn2c(=O)[nH]c3c(sc4ncc(Cl)nc43)c2=O)C1 [Example 14, (R)-8-Chloro-3-[4-[3-(2-methoxyphenyl)-1-pyrrolidinyl]butyl]pyrazino[2',3':4,5]thieno[3,2-d]pyrimidine-2,4(1H,3H)-dione, Dihydrochloride]
